What was measured:
Test in all cases: relative viability (nuclei count vs DMSO), 5 days (fraction); higher = more cells survive
NCI-H2009 = tested on: NCI-H2009
Method in brief: (§1)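 After 5 days of treatment, lung cancer cells in 1536-well plates were fixed and stained in a single step (final 0.05% Triton X-100, 1% formaldehyde, 1 ug/ml Hoechst) and their nuclei counted on 4× images. Treatment had been applied by pin tool the day after seeding as one drug alone or as a fixed anchor-drug dose with five library-drug doses (not always all listed) in √10 steps. Relative viability is the nuclei count of treated wells divided by that of vehicle wells, and values are medians of duplicate plates.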

201T = tested on: 201T
Method in brief: as §1

NCI-H650 = tested on: NCI-H650
Method in brief: as §1

NCI-H1650 = tested on: NCI-H1650
Method in brief: as §1

HCC-44 = tested on: HCC-44
Method in brief: as §1

RERF-LC-KJ = tested on: RERF-LC-KJ
Method in brief: as §1

NCI-H1734 = tested on: NCI-H1734
Method in brief: as §1

NCI-H441 = tested on: NCI-H441
Method in brief: as §1

HCC-15 = tested on: HCC-15
Method in brief: as §1

LCLC-97TM1 = tested on: LCLC-97TM1
Method in brief: as §1

NCI-H2126 = tested on: NCI-H2126
Method in brief: as §1

A-427 = tested on: A-427
Method in brief: as §1

HCC-366 = tested on: HCC-366
Method in brief: as §1

NCI-H1993 = tested on: NCI-H1993
Method in brief: as §1

SW 1573 = tested on: SW 1573
Method in brief: as §1

HARA = tested on: HARA
Method in brief: as §1

NCI-H460 = tested on: NCI-H460
Method in brief: as §1

LOU-NH91 = tested on: LOU-NH91
Method in brief: as §1

HCC-78 = tested on: HCC-78
Method in brief: as §1

COR-L23 = tested on: COR-L23
Method in brief: as §1

ChaGo-K-1 = tested on: ChaGo-K-1
Method in brief: as §1

NCI-H2023 = tested on: NCI-H2023
Method in brief: as §1

LCLC-103H = tested on: LCLC-103H
Method in brief: as §1

O=c1[nH]c2ccccc2n1C1CCN(CCCC(c2ccc(F)cc2)c2ccc(F)cc2)CC1 [Pimozide] + Cc1cc(Nc2cc(N3CCN(C)CC3)nc(Sc3ccc(NC(=O)C4CC4)cc3)n2)n[nH]1 [Tozasertib] (partner 0.1 µM) showed a relative viability (NCI-H2009; first compound 0.08 µM) of 0.696, a relative viability (NCI-H2009; first compound 0.253 µM) of 0.754 and a relative viability (NCI-H2009; first compound 0.8 µM) of 0.683. The relative viability (NCI-H2009; first compound 2.53 µM) was 0.58, the relative viability (NCI-H2009; first compound 8 µM) was 0.577 and the relative viability (201T; first compound 0.08 µM) was 0.88. It also gave a relative viability (201T; first compound 0.253 µM) of 0.94, a relative viability (201T; first compound 0.8 µM) of 0.871 and a relative viability (201T; first compound 2.53 µM) of 0.747. It also gave a relative viability (201T; first compound 8 µM) of 0.636, a relative viability (NCI-H650; first compound 0.08 µM) of 0.758 and a relative viability (NCI-H650; first compound 0.253 µM) of 0.702. For the same compound, the relative viability (NCI-H650; first compound 0.8 µM) was 0.662, the relative viability (NCI-H650; first compound 2.53 µM) was 0.698 and the relative viability (NCI-H650; first compound 8 µM) was 0.782. For the same compound, the relative viability (NCI-H1650; first compound 0.08 µM) was 0.347, the relative viability (NCI-H1650; first compound 0.253 µM) was 0.398 and the relative viability (NCI-H1650; first compound 0.8 µM) was 0.475. The relative viability (NCI-H1650; first compound 2.53 µM) was 0.331, the relative viability (NCI-H1650; first compound 8 µM) was 0.307 and the relative viability (HCC-44; first compound 0.08 µM) was 1.16. It also gave a relative viability (HCC-44; first compound 0.253 µM) of 0.918, a relative viability (HCC-44; first compound 0.8 µM) of 0.811 and a relative viability (HCC-44; first compound 2.53 µM) of 0.499. For the same compound, the relative viability (HCC-44; first compound 8 µM) was 0.983, the relative viability (RERF-LC-KJ; first compound 0.08 µM) was 0.468 and the relative viability (RERF-LC-KJ; first compound 0.253 µM) was 0.447. It also gave a relative viability (RERF-LC-KJ; first compound 0.8 µM) of 0.452, a relative viability (RERF-LC-KJ; first compound 2.53 µM) of 0.202 and a relative viability (RERF-LC-KJ; first compound 8 µM) of 0.248. It also gave a relative viability (NCI-H1734; first compound 0.08 µM) of 0.277, a relative viability (NCI-H1734; first compound 0.253 µM) of 0.289 and a relative viability (NCI-H1734; first compound 2.53 µM) of 0.255. The relative viability (NCI-H1734; first compound 8 µM) was 0.271, the relative viability (NCI-H441; first compound 0.08 µM) was 0.655 and the relative viability (NCI-H441; first compound 0.253 µM) was 0.614. For the same compound, the relative viability (NCI-H441; first compound 0.8 µM) was 0.569, the relative viability (NCI-H441; first compound 2.53 µM) was 0.546 and the relative viability (NCI-H441; first compound 8 µM) was 0.618. It also gave a relative viability (HCC-15; first compound 0.08 µM) of 0.403, a relative viability (HCC-15; first compound 0.253 µM) of 0.365 and a relative viability (HCC-15; first compound 0.8 µM) of 0.322. It also gave a relative viability (HCC-15; first compound 2.53 µM) of 0.292, a relative viability (HCC-15; first compound 8 µM) of 0.201 and a relative viability (LCLC-97TM1; first compound 0.08 µM) of 0.265. It also gave a relative viability (LCLC-97TM1; first compound 0.253 µM) of 0.212, a relative viability (LCLC-97TM1; first compound 0.8 µM) of 0.225 and a relative viability (LCLC-97TM1; first compound 2.53 µM) of 0.173. The relative viability (LCLC-97TM1; first compound 8 µM) was 0.193, the relative viability (NCI-H2126; first compound 0.08 µM) was 0.861 and the relative viability (NCI-H2126; first compound 0.253 µM) was 0.787. The relative viability (NCI-H2126; first compound 0.8 µM) was 0.756, the relative viability (NCI-H2126; first compound 2.53 µM) was 0.817 and the relative viability (NCI-H2126; first compound 8 µM) was 0.772. It also gave a relative viability (A-427; first compound 0.08 µM) of 0.194, a relative viability (A-427; first compound 0.253 µM) of 0.189 and a relative viability (A-427; first compound 0.8 µM) of 0.222. It also gave a relative viability (A-427; first compound 2.53 µM) of 0.16, a relative viability (A-427; first compound 8 µM) of 0.208 and a relative viability (HCC-366; first compound 0.08 µM) of 0.079. For the same compound, the relative viability (HCC-366; first compound 0.253 µM) was 0.0803, the relative viability (HCC-366; first compound 0.8 µM) was 0.142 and the relative viability (HCC-366; first compound 2.53 µM) was 0.0868. It also gave a relative viability (HCC-366; first compound 8 µM) of 0.0997, a relative viability (NCI-H1993; first compound 0.08 µM) of 0.555 and a relative viability (NCI-H1993; first compound 0.253 µM) of 0.567. For the same compound, the relative viability (NCI-H1993; first compound 0.8 µM) was 0.612, the relative viability (NCI-H1993; first compound 2.53 µM) was 0.568 and the relative viability (NCI-H1993; first compound 8 µM) was 0.58. For the same compound, the relative viability (SW 1573; first compound 0.08 µM) was 0.132, the relative viability (SW 1573; first compound 0.253 µM) was 0.273 and the relative viability (SW 1573; first compound 0.8 µM) was 0.133. For the same compound, the relative viability (SW 1573; first compound 2.53 µM) was 0.194, the relative viability (SW 1573; first compound 8 µM) was 0.174 and the relative viability (HARA; first compound 0.253 µM) was 0.107. The relative viability (HARA; first compound 0.8 µM) was 0.111, the relative viability (HARA; first compound 2.53 µM) was 0.0907 and the relative viability (HARA; first compound 8 µM) was 0.123. The relative viability (NCI-H460; first compound 0.08 µM) was 0.407, the relative viability (NCI-H460; first compound 0.253 µM) was 0.314 and the relative viability (NCI-H460; first compound 0.8 µM) was 0.446. It also gave a relative viability (NCI-H460; first compound 2.53 µM) of 0.0946, a relative viability (NCI-H460; first compound 8 µM) of 0.436 and a relative viability (LOU-NH91; first compound 0.08 µM) of 0.451. For the same compound, the relative viability (LOU-NH91; first compound 0.253 µM) was 0.614, the relative viability (LOU-NH91; first compound 0.8 µM) was 0.553 and the relative viability (LOU-NH91; first compound 2.53 µM) was 0.648. For the same compound, the relative viability (LOU-NH91; first compound 8 µM) was 0.652, the relative viability (HCC-78; first compound 0.08 µM) was 0.336 and the relative viability (HCC-78; first compound 0.8 µM) was 0.319. The relative viability (HCC-78; first compound 2.53 µM) was 0.371, the relative viability (HCC-78; first compound 8 µM) was 0.327 and the relative viability (COR-L23; first compound 0.08 µM) was 0.194. For the same compound, the relative viability (COR-L23; first compound 0.253 µM) was 0.183, the relative viability (COR-L23; first compound 0.8 µM) was 0.191 and the relative viability (COR-L23; first compound 2.53 µM) was 0.153. The relative viability (COR-L23; first compound 8 µM) was 0.185, the relative viability (ChaGo-K-1; first compound 0.08 µM) was 0.22 and the relative viability (ChaGo-K-1; first compound 0.253 µM) was 0.235. For the same compound, the relative viability (ChaGo-K-1; first compound 0.8 µM) was 0.24, the relative viability (ChaGo-K-1; first compound 2.53 µM) was 0.212 and the relative viability (ChaGo-K-1; first compound 8 µM) was 0.211. For the same compound, the relative viability (NCI-H2023; first compound 0.08 µM) was 0.352, the relative viability (NCI-H2023; first compound 0.253 µM) was 0.314 and the relative viability (NCI-H2023; first compound 0.8 µM) was 0.454. For the same compound, the relative viability (NCI-H2023; first compound 2.53 µM) was 0.228, the relative viability (NCI-H2023; first compound 8 µM) was 0.237 and the relative viability (LCLC-103H; first compound 0.08 µM) was 0.353. For the same compound, the relative viability (LCLC-103H; first compound 0.253 µM) was 0.409, the relative viability (LCLC-103H; first compound 0.8 µM) was 0.361 and the relative viability (LCLC-103H; first compound 2.53 µM) was 0.422. The relative viability (LCLC-103H; first compound 8 µM) was 0.446.

From the supplement of paper PMC10307832
